Experimental data reported in patent US9611248B2, “Chemical compounds” (Syngenta Participations AG, priority 2013, dated 2017).

System: a variety of test species
Test: Post-emergence herbicidal activity
Assay type: in vivo
Parameters: key to ABUTH (Abutilon theophrasti) damage score / AMARE (Amaranthus retroflexus) damage score / ALOMY (Alopecurus myosuroides) damage score / ECHCG (Echinochloa crus-galli) damage score / ZEAMX (Zea mays) damage score / SOLNI (Solanum nigrum) damage score: 0 = no damage to plant, 5 = total damage to plant
Conditions: rate 1000 g/ha, evaluated after 13 days
Procedure, shortened: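 Plants grown for 8 days in pots were sprayed post-emergence with compound in acetone/water (50:50) containing 0.5% Tween 20. They were kept in a glasshouse at 24/16 °C day/night, 14 h light, 65% humidity, watered twice daily. Damage was scored after 13 days (0 none to 5 total).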

| SMILES | ABUTH (Abutilon theophrasti) damage score | ALOMY (Alopecurus myosuroides) damage score | AMARE (Amaranthus retroflexus) damage score | ECHCG (Echinochloa crus-galli) damage score | SETFA (Setaria faberi) damage score | ZEAMX (Zea mays) damage score |
| --- | --- | --- | --- | --- | --- | --- |
| CCCCNS(=O)(=O)c1cnc(N2C(=O)C(C)=C(OC)C2O)cc1C (stereo not drawn) [AD96] | 3 | 4 | 5 | 4 | 5 | 0 |
| COC1=C(C)C(=O)N(c2cc(C)c(S(=O)(=O)N3CCCCC3)cn2)C1O (stereo not drawn) [AD97] | 0 | 0 | 0 | 0 | 0 | 0 |
| COC1=C(C)C(=O)N(c2cc(C(F)(F)F)c(C(=O)NCc3ccccc3)cn2)C1O (stereo not drawn) [AD98] | 5 | 4 | 5 | 4 | 4 | 1 |
| CCc1cc(N2C(=O)C(C)=C(OC)C2O)ncc1-c1cccc(C#N)c1 (stereo not drawn) [AD99] | 5 | 1 | 5 | 5 | 4 | 1 |
| CCc1cc(N2C(=O)C(C)=C(OC)C2O)ncc1-c1ccccc1OC (stereo not drawn) [AD100] | 4 | 0 | 5 | 0 | 4 | 1 |
| CCc1cc(N2C(=O)C(C)=C(OC)C2O)ncc1-c1ccoc1 (stereo not drawn) [AD102] | 4 | 3 | 5 | 3 | 4 | 1 |
| CCc1cc(N2C(=O)C(C)=C(OC)C2O)ncc1-c1ccc(C)c([N+](=O)[O-])c1 (stereo not drawn) [AD103] | 4 | 3 | 5 | 4 | 4 | 1 |
| CCc1cc(N2C(=O)C(C)=C(OC)C2O)ncc1-c1ccccc1[N+](=O)[O-] (stereo not drawn) [AD104] | 5 | 2 | 5 | 2 | 4 | 0 |
| CCc1cc(N2C(=O)C(C)=C(OC)C2O)ncc1-c1ccccc1F (stereo not drawn) [AD105] | 5 | 2 | 5 | 3 | 4 | 1 |
| CCc1cc(N2C(=O)C(C)=C(OC)C2O)ncc1-c1ccc(F)cc1F (stereo not drawn) [AD106] | 5 | 2 | 5 | 4 | 4 | 0 |
| CCc1cc(N2C(=O)C(C)=C(OC)C2O)ncc1-c1ccccc1C (stereo not drawn) [AD107] | 5 | 2 | 5 | 2 | 3 | 1 |
| CCc1cc(N2C(=O)C(C)=C(OC)C2O)ncc1-c1cccc(F)c1 (stereo not drawn) [AD108] | 5 | 3 | 5 | 3 | 5 | 0 |
| COC1=C(C)C(=O)N(c2cc(C)c(-c3cccc(C#N)c3)cn2)C1O (stereo not drawn) [AD109] | 5 | 3 | 5 | 5 | 5 | 1 |
| COC1=C(C)C(=O)N(c2cc(C)c(-c3ccccc3OC)cn2)C1O (stereo not drawn) [AD110] | 5 | 2 | 5 | 1 | 2 | 0 |
| COC1=C(C)C(=O)N(c2cc(C)c(-c3ccc(C#N)cc3)cn2)C1O (stereo not drawn) [AD111] | 5 | 2 | 5 | 1 | 4 | 1 |
| COC1=C(C)C(=O)N(c2cc(C)c(-c3ccc4c(c3)OCO4)cn2)C1O (stereo not drawn) [AD112] | 4 | 2 | 5 | 3 | 3 | 1 |
| COC1=C(C)C(=O)N(c2cc(C)c(-c3ccoc3)cn2)C1O (stereo not drawn) [AD113] | 3 | 2 | 5 | 2 | 1 | 1 |
| COC1=C(C)C(=O)N(c2cc(C)c(-c3cc(F)c(F)c(F)c3)cn2)C1O (stereo not drawn) [AD114] | 4 | 2 | 5 | 1 | 3 | 0 |
| COC1=C(C)C(=O)N(c2cc(C)c(-c3ccc(OC)cc3)cn2)C1O (stereo not drawn) [AD115] | 5 | 2 | 5 | 1 | 1 | 1 |
| COC1=C(C)C(=O)N(c2cc(C)c(-c3ccc([N+](=O)[O-])cc3)cn2)C1O (stereo not drawn) [AD116] | 2 | 0 | 5 | 0 | 1 | 1 |
| COC1=C(C)C(=O)N(c2cc(C)c(-c3ccc(OC)c(OC)c3)cn2)C1O (stereo not drawn) [AD117] | 5 | 2 | 5 | 1 | 4 | 0 |
| COC1=C(C)C(=O)N(c2cc(C)c(-c3cccc([N+](=O)[O-])c3)cn2)C1O (stereo not drawn) [AD118] | 5 | 2 | 5 | 2 | 4 | 0 |
| COC1=C(C)C(=O)N(c2cc(C)c(-c3ccc(C)c([N+](=O)[O-])c3)cn2)C1O (stereo not drawn) [AD119] | 2 | 2 | 5 | 1 | 1 | 0 |
| COC1=C(C)C(=O)N(c2cc(C)c(-c3ccccc3[N+](=O)[O-])cn2)C1O (stereo not drawn) [AD120] | 5 | 2 | 5 | 4 | 4 | 0 |
| COC1=C(C)C(=O)N(c2cc(C)c(-c3ccccc3F)cn2)C1O (stereo not drawn) [AD121] | 5 | 3 | 5 | 3 | 5 | 1 |
| COC1=C(C)C(=O)N(c2cc(C)c(-c3ccc(F)cc3F)cn2)C1O (stereo not drawn) [AD122] | 5 | 3 | 5 | 4 | 4 | 0 |
| COC1=C(C)C(=O)N(c2cc(C(F)(F)F)c(-c3ccoc3)cn2)C1O (stereo not drawn) [AD124] | 2 | 2 | 5 | 2 | 4 | 0 |
| COC1=C(C)C(=O)N(c2cc(C(F)(F)F)c(-c3ccc(S(C)(=O)=O)cc3)cn2)C1O (stereo not drawn) [AD125] | 4 | 4 | 5 | 4 | 4 | 1 |
| COC1=C(C)C(=O)N(c2cc(C(F)(F)F)c(-c3cc(F)c(F)c(F)c3)cn2)C1O (stereo not drawn) [AD126] | 5 | 3 | 5 | 3 | 5 | 1 |
| COC1=C(C)C(=O)N(c2cc(C(F)(F)F)c(-c3ccc(C)c([N+](=O)[O-])c3)cn2)C1O (stereo not drawn) [AD127] | 2 | 1 | 5 | 4 | 4 | 4 |
